Laboratory results as given in BindingDB's records for doi:10.1016/j.ejmech.2012.12.014 (Universitat De Barcelona, 2013).

Assays:
[1] = molecular target: T1, Glycogen synthase kinase-3 beta (Homo sapiens, UniProt P49841); assay: (§1) Inhibition of human recombinant GSK-3beta using GS2 peptide as substrate and [gamma33P]-ATP after 30 mins by scintillation counting
[2] = molecular target: T1, Glycogen synthase kinase-3 beta; assay: as §1; remark: listed apart in the source
[3] = molecular target: T2, Cyclin-dependent kinase 5 (Homo sapiens, UniProt Q00535); assay: (§2) Inhibition of human recombinant CDK5 using histone H1 as substrate and [gamma33P]-ATP after 20 mins by scintillation counting
T2 sequence (Q00535 whole entry): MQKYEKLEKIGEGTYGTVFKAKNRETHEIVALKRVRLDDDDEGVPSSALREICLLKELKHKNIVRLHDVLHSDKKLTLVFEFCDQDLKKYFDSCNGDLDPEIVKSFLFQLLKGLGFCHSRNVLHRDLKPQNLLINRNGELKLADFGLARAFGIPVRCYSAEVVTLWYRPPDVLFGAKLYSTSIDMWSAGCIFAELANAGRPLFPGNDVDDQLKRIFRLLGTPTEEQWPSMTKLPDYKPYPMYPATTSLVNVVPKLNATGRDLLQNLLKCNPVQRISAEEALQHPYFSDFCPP

[4] = molecular target: T3, Cyclin-dependent kinase 1 (Homo sapiens, UniProt P06493); assay: (§3) Inhibition of human recombinant CDK1 using histone H1 as substrate and [gamma33P]-ATP after 15 mins by scintillation counting
T3 sequence (P06493 whole entry): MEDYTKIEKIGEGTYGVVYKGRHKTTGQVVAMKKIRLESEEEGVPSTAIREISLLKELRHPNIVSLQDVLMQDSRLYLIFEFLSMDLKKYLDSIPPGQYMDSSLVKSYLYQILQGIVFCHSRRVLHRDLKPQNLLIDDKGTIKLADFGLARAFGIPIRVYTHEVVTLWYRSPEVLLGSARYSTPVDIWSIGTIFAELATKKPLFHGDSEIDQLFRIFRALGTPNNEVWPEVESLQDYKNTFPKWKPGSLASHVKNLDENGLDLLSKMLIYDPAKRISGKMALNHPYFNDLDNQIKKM

[5] = molecular target: T3, Cyclin-dependent kinase 1; assay: as §3; remark: listed apart in the source
[6] = molecular target: T4, Glycogen synthase kinase-3 alpha (Homo sapiens, UniProt P49840); assay: (§4) Inhibition of human recombinant GSK-3alpha using GS2 peptide as substrate and [gamma33P]-ATP after 12 mins by scintillation counting
T4 sequence (P49840 whole entry): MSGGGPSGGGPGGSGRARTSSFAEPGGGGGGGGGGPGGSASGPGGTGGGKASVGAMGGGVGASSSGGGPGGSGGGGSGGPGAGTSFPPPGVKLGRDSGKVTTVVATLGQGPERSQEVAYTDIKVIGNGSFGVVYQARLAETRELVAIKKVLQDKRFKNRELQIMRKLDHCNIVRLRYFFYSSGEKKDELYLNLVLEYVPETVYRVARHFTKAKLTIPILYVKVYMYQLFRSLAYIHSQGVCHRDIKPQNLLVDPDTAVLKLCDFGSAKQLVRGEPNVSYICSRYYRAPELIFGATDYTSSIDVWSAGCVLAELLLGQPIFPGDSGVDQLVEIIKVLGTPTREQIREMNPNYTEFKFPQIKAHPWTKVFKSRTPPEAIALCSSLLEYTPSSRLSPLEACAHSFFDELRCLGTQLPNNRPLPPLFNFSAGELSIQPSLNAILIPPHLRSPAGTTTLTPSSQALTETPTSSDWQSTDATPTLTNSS

[7] = molecular target: T4, Glycogen synthase kinase-3 alpha; assay: as §4; remark: listed apart in the source
[8] = molecular target: T2, Cyclin-dependent kinase 5; assay: as §2; remark: listed apart in the source

T1 sequence (P49841 whole entry): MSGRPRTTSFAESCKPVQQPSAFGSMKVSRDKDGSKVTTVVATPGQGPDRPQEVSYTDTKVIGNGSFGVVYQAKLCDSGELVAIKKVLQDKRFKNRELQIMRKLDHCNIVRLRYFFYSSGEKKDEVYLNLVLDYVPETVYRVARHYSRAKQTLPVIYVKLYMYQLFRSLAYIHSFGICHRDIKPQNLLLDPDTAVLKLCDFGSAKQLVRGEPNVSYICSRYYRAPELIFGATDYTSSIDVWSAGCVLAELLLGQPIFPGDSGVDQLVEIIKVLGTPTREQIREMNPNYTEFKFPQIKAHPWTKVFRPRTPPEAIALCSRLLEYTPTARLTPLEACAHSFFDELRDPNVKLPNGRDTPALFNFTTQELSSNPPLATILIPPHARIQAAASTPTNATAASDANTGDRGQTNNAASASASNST

IC50 [1] [nM] | IC50 [2] [nM] | IC50 [3] [nM] | IC50 [4] [nM] | IC50 [5] [nM] | IC50 [6] [nM] | IC50 [7] [nM] | IC50 [8] [nM] | Structure (SMILES)
> 50000 | > 50000 | – | – | – | – | – | – | CCCCCCCC(=O)OC[C@H](O)[C@H]1OC(=O)C(O)C1=O (some centres not stated)
2340 | 2340 | – | – | – | – | – | – | C/C(=C/CC[C@@H](C)C=C1OC(=O)C(C)C1=O)CCCc1coc(Cc2ccoc2)c1 (some centres not stated) [Ircinin 2]
1910 | 1910 | < 25100 | < 100000 | < 100000 | 1620 | 1620 | < 25100 | C/C(=C\C=C\C(C)CC/C=C(\C)C[C@H]1OC(=O)C(C)C1=O)CCCc1ccoc1 (some centres not stated) [PALINURIN]
